# *1 amine or outer side, *2 acyl side, *3 side chain or, on linkers, in order; H or OH if unused. Where a SMILES comes first, the peptide text is derived from it. Bridges are numbered along the chain shown (N, C = ends). Triazole bridges read from a SMILES are 1,4-linked. [ ]: non-standard residue; d: D form. The star is where a group is joined. ξ: configuration not given here. dPhe(4-CONH2) = NC(=O)c1ccc(C[C@@H](N)C(=O)O)cc1; dPhe(4-CN) = N#Cc1ccc(C[C@@H](N)C(=O)O)cc1; Phe(4-Cl) = N[C@@H](Cc1ccc(Cl)cc1)C(=O)O; dDap(N3) = [N-]=[N+]=NC[C@@H](N)C(=O)O; Dap(N3) = [N-]=[N+]=NC[C@H](N)C(=O)O; Butanoyl(3,3-Me2) = CC(C)(C)CC(=O)*; Lys(Me) = CNCCCC[C@H](N)C(=O)O; Thr(3ξ) = CC(O)[C@H](N)C(=O)O; X4 = O=C(CS(=O)(=O)c1ccccc1)*; Succinamoyl = NC(=O)CCC(=O)*; Picolinoyl = O=C(c1ccccn1)*; dPra = C#CC[C@@H](N)C(=O)O; MeOSuc = COC(=O)CCC(=O)*; Pra = C#CC[C@H](N)C(=O)O; 2Furoyl = O=C(c1ccco1)*; Dap = NC[C@H](N)C(=O)O; Hexanoyl = CCCCCC(=O)*; CO = O=C([*:1])[*:2]; Bz = O=C(c1ccccc1)*; βAla = NCCC(=O)O
# Molecular target: somatostatin type 2 (SSTR2) receptors (Homo sapiens, UniProt P30874)
# Sequence (P30874 whole entry): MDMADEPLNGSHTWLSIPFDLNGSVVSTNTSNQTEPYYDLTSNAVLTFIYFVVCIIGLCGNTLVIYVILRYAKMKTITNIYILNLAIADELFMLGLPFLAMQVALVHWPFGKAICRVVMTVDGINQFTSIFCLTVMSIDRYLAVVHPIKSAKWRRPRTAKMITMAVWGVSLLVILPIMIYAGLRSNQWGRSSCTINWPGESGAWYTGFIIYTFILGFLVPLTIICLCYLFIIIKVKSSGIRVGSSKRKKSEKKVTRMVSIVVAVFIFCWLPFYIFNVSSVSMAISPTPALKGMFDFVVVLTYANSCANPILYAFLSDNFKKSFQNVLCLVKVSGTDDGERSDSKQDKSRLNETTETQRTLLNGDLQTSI
# Experiment: PathHunter β-Arrestin assay, antagonist mode, SSTR2
# Assay type: cell-based
# Details: agonist challenge at EC80
# Experimental: The PathHunter® β-Arrestin assay monitors the activation of a GPCR in a homogenous, non-imaging assay format using a technology developed by DiscoveRx called Enzyme Fragment Complementation (EFC) with β-galactosidase (β-Gal) as the functional reporter. […] EA is fused to β-Arrestin and […] is fused to the GPCR of interest. When the GPCR is activated and β-Arrestin is recruited to the receptor, ED and EA complementation occurs, restoring β-Gal activity which is measured using chemiluminescent PathHunter® Detection Reagents. For antagonist determination, cells were pre-incubated with the compounds followed by agonist challenge at the EC80 concentration. Data was normalized to the maximal and minimal response observed in the presence of EC80 ligand and vehicle. Compound activity was analyzed using CBIS data analysis suite ChemInnovation, CA). Percentage inhibition was calculated using the following formula: % Inhibition=100%×(1−(mean signal of test sample-mean signal of vehicle control)/(mean signal of EC80 control-mean signal of vehicle control)). Percentage inhibition was calculated at 10 concentrations in steps on a Log 3 scale ranging from […] to 5e-5 μM. The results were plotted for IC50 calculation.
row,SMILES,IC50 [nM]
1,"CNCCCC[C@@H]1NC(=O)[C@@H](Cc2ccc(C(N)=O)cc2)NC(=O)[C@H](Cc2ccc(O)cc2)NC(=O)[C@H](NC(=O)[C@H](Cc2ccc(Cl)cc2)NC(=O)CCN)CSSC[C@@H](C(=O)N[C@H](Cc2ccc(O)cc2)C(N)=O)NC(=O)[C@H]([C@@H](C)O)NC1=O [Compound 49, H-β-Ala-Cpa-cyclo[D-Cys-Tyr-D-Phe(4-carbamoyl)-Lys (Nε-Me)-Thr-Cys]-D-Tyr-NH2] (H-[βAla][Phe(4-Cl)][dC]Y[dPhe(4-CONH2)][Lys(Me)]TC[dY]-NH2; disulfide 3-8)",2.86
2,"CNCCCC[C@@H]1NC(=O)[C@@H](Cc2ccc(C(N)=O)cc2)NC(=O)[C@H](Cc2ccc(O)cc2)NC(=O)[C@H](NC(=O)[C@H](Cc2ccc(Cl)cc2)NC(=O)CNC(=O)c2ccccc2)CSSC[C@@H](C(=O)N[C@H](Cc2ccc(O)cc2)C(N)=O)NC(=O)[C@H]([C@@H](C)O)NC1=O [Compound 50, Ph(CO)NHCH2(CO)-Cpa-cyclo[D-Cys-Tyr-D-Phe(4-carbamoyl)-Lys(N^ε-Me)-Thr-Cys]-D-Tyr-NH2] (Bz-G[Phe(4-Cl)][dC]Y[dPhe(4-CONH2)][Lys(Me)]TC[dY]-NH2; disulfide 3-8)",1.11
3,"CNCCCC[C@@H]1NC(=O)[C@@H](Cc2ccc(C(N)=O)cc2)NC(=O)[C@H](Cc2ccc(O)cc2)NC(=O)[C@H](NC(=O)[C@H](Cc2ccc(Cl)cc2)NC(=O)CS(=O)(=O)c2ccccc2)CSSC[C@@H](C(=O)N[C@H](Cc2ccc(O)cc2)C(N)=O)NC(=O)[C@H]([C@@H](C)O)NC1=O [Compound 51, PhSO2CH2(CO)-Cpa-cyclo[D-Cys-Tyr-D-Phe(4-carbamoyl)-Lys(N^ε-Me)-Thr-Cys]-D-Tyr-NH2] (X4-[Phe(4-Cl)][dC]Y[dPhe(4-CONH2)][Lys(Me)]TC[dY]-NH2; disulfide 2-7)",1.45
4,"CNCCCC[C@@H]1NC(=O)[C@@H](Cc2ccc(C(N)=O)cc2)NC(=O)[C@H](Cc2ccc(O)cc2)NC(=O)[C@H](NC(=O)[C@H](Cc2ccc(Cl)cc2)NC(=O)CC(C)(C)C)CSSC[C@@H](C(=O)N[C@H](Cc2ccc(O)cc2)C(N)=O)NC(=O)[C@H]([C@@H](C)O)NC1=O [Compound 52, t-BuCH2(CO)-Cpa-cyclo[D-Cys-Tyr-D-Phe(4-carbamoyl)-Lys(N^ε-Me)-Thr-Cys]-D-Tyr-NH2] ({Butanoyl(3,3-Me2)}-[Phe(4-Cl)][dC]Y[dPhe(4-CONH2)][Lys(Me)]TC[dY]-NH2; disulfide 2-7)",1.73
5,"CNCCCC[C@@H]1NC(=O)[C@@H](Cc2ccc(C(N)=O)cc2)NC(=O)[C@H](Cc2ccc(O)cc2)NC(=O)[C@H](NC(=O)[C@H](Cc2ccc(Cl)cc2)NC(=O)c2ccccn2)CSSC[C@@H](C(=O)N[C@H](Cc2ccc(O)cc2)C(N)=O)NC(=O)[C@H]([C@@H](C)O)NC1=O [Compound 53, 2-Pyridyl(CO)-Cpa-cyclo[D-Cys-Tyr-D-Phe(4-carbamoyl)-Lys(N^ε-Me)-Thr-Cys]-D-Tyr-NH2] (Picolinoyl-[Phe(4-Cl)][dC]Y[dPhe(4-CONH2)][Lys(Me)]TC[dY]-NH2; disulfide 2-7)",4.28
6,"CNCCCC[C@@H]1NC(=O)[C@@H](Cc2ccc(C(N)=O)cc2)NC(=O)[C@H](Cc2ccc(O)cc2)NC(=O)[C@H](NC(=O)[C@H](Cc2ccc(Cl)cc2)NC(=O)CCC(N)=O)CSSC[C@@H](C(=O)N[C@H](Cc2ccc(O)cc2)C(N)=O)NC(=O)[C@H]([C@@H](C)O)NC1=O [Compound 54, H2N(CO)(CH2)2(CO)-Cpa-cyclo[D-Cys-Tyr-D-Phe(4-carbamoyl)-Lys(N^ε-Me)-Thr-Cys]-D-Tyr-NH2] (Succinamoyl-[Phe(4-Cl)][dC]Y[dPhe(4-CONH2)][Lys(Me)]TC[dY]-NH2; disulfide 2-7)",2.33
7,"CNCCCC[C@@H]1NC(=O)[C@@H](Cc2ccc(C(N)=O)cc2)NC(=O)[C@H](Cc2ccc(O)cc2)NC(=O)[C@H](NC(=O)[C@H](Cc2ccc(Cl)cc2)NC(=O)CNC(C)=O)CSSC[C@@H](C(=O)N[C@H](Cc2ccc(O)cc2)C(N)=O)NC(=O)[C@H]([C@@H](C)O)NC1=O [Compound 55, Ac-Gly-Cpa-cyclo[D-Cys-Tyr-D-Phe(4-carbamoyl)-Lys(N^ε-Me)-Thr-Cys]-D-Tyr-NH2] (Ac-G[Phe(4-Cl)][dC]Y[dPhe(4-CONH2)][Lys(Me)]TC[dY]-NH2; disulfide 3-8)",3.35
8,"CCCCCC(=O)N[C@@H](Cc1ccc(Cl)cc1)C(=O)N[C@@H]1CSSC[C@@H](C(=O)N[C@H](Cc2ccc(O)cc2)C(N)=O)NC(=O)[C@H]([C@@H](C)O)NC(=O)[C@H](CCCCNC)NC(=O)[C@@H](Cc2ccc(C(N)=O)cc2)NC(=O)[C@H](Cc2ccc(O)cc2)NC1=O [Compound 56, CH3(CH2)4(CO)-Cpa-cyclo[D-Cys-Tyr-D-Phe(4-carbamoyl)-Lys(N^ε-Me)-Thr-Cys]-D-Tyr-NH2] (Hexanoyl-[Phe(4-Cl)][dC]Y[dPhe(4-CONH2)][Lys(Me)]TC[dY]-NH2; disulfide 2-7)",1.6
9,"CNCCCC[C@@H]1NC(=O)[C@@H](Cc2ccc(C(N)=O)cc2)NC(=O)[C@H](Cc2ccc(O)cc2)NC(=O)[C@H](NC(=O)[C@H](Cc2ccc(Cl)cc2)NC(=O)c2ccco2)CSSC[C@@H](C(=O)N[C@H](Cc2ccc(O)cc2)C(N)=O)NC(=O)[C@H]([C@@H](C)O)NC1=O [Compound 57, (Furan-2-carboxy)-Cpa-cyclo[D-Cys-Tyr-D-Phe(4-carbamoyl)-Lys(N^ε-Me)-Thr-Cys]-D-Tyr-NH2] (2Furoyl-[Phe(4-Cl)][dC]Y[dPhe(4-CONH2)][Lys(Me)]TC[dY]-NH2; disulfide 2-7)",3.65
10,"CNCCCC[C@@H]1NC(=O)[C@@H](Cc2ccc(C(N)=O)cc2)NC(=O)[C@H](Cc2ccc(O)cc2)NC(=O)[C@H](NC(=O)[C@H](Cc2ccc(Cl)cc2)NC(=O)CCC(=O)OC)CSSC[C@@H](C(=O)N[C@H](Cc2ccc(O)cc2)C(N)=O)NC(=O)[C@H]([C@@H](C)O)NC1=O [Compound 58, CH3O2C(CH2)2(CO)-Cpa-cyclo[D-Cys-Tyr-D-Phe(4-carbamoyl)-Lys(N^ε-Me)-Thr-Cys]-D-Tyr-NH2] (MeOSuc-[Phe(4-Cl)][dC]Y[dPhe(4-CONH2)][Lys(Me)]TC[dY]-NH2; disulfide 2-7)",2.36
11,"C[C@@H](O)[C@@H]1NC(=O)[C@H](CCCCN)NC(=O)[C@@H](Cc2ccc(C#N)cc2)NC(=O)[C@H](Cc2ccc(O)cc2)NC(=O)[C@H](NC(=O)[C@@H](N)Cc2ccc(Cl)cc2)CSSC[C@@H](C(=O)N[C@H](Cc2ccc(O)cc2)C(N)=O)NC1=O [Compound 59, H-Cpa-[DCys- Tyr-DPhe(4-CN)- Lys-Thr-Cys]- DTyr-NH2] (H-[Phe(4-Cl)][dC]Y[dPhe(4-CN)]KTC[dY]-NH2; disulfide 2-7)",39.1
12,"CC(O)[C@@H]1NC(=O)[C@H](CCCCN)NC(=O)[C@@H](Cc2ccc(C(N)=O)cc2)NC(=O)[C@H](Cc2ccc(O)cc2)NC(=O)[C@H](NC(=O)[C@@H](N)Cc2ccc(Cl)cc2)CNC(=O)SC[C@@H](C(=O)N[C@H](Cc2ccc(O)cc2)C(N)=O)NC1=O (stereo partly drawn) [Compound 60, H-Cpa-cyclo [DDap-Tyr- DPhe(4-CONH2)- Lys-Thr-Cys]- DTyr-NH2]",> 1000

# More lines, now with the values ahead:
row,IC50 [nM],SMILES
1,> 1000,"CC(O)[C@@H]1NC(=O)[C@H](CCCCN)NC(=O)[C@@H](Cc2ccc(C(N)=O)cc2)NC(=O)[C@H](Cc2ccc(O)cc2)NC(=O)[C@H](NC(=O)[C@@H](N)Cc2ccc(Cl)cc2)CSC(=O)NC[C@@H](C(=O)N[C@H](Cc2ccc(O)cc2)C(N)=O)NC1=O (stereo partly drawn) [Compound 62, H-Cpa-cyclo[DCys- Tyr-DPhe(4- CONH2)- Lys-Thr-Dap]- DTyr-NH2] (H-[Phe(4-Cl)][dC]Y[dPhe(4-CONH2)]K[Thr(3ξ)][Dap][dY]-NH2; linker 2-7 via CO)"
2,> 1000,"CNCCCC[C@@H]1NC(=O)[C@@H](Cc2ccc(C(N)=O)cc2)NC(=O)[C@H](Cc2ccc(O)cc2)NC(=O)[C@H](NC(=O)[C@@H](N)Cc2ccc(Cl)cc2)CSC(=O)NC[C@@H](C(=O)N[C@H](Cc2ccc(O)cc2)C(N)=O)NC(=O)[C@H](C(C)O)NC1=O (stereo partly drawn) [Compound 63, H-Cpa-cyclo [DCys-Tyr-DPhe (4-CONH2)- Lys(Me)-Thr-Dap]- DTyr-NH2] (H-[Phe(4-Cl)][dC]Y[dPhe(4-CONH2)][Lys(Me)][Thr(3ξ)][Dap][dY]-NH2; linker 2-7 via CO)"
3,> 1000,C[C@@H](O)[C@@H]1NC(=O)[C@H](CCCCN)NC(=O)[C@@H](Cc2ccc(C(N)=O)cc2)NC(=O)[C@H](Cc2ccc(O)cc2)NC(=O)[C@H](NC(=O)[C@@H](N)Cc2ccc(Cl)cc2)Cn2cc(nn2)C[C@@H](C(=O)N[C@H](Cc2ccc(O)cc2)C(N)=O)NC1=O [Compound 64] (H-[Phe(4-Cl)][dDap(N3)]Y[dPhe(4-CONH2)]KT[Pra][dY]-NH2; triazole 2-7)
4,688,C[C@@H](O)[C@@H]1NC(=O)[C@H](CCCCN)NC(=O)[C@@H](Cc2ccc(C(N)=O)cc2)NC(=O)[C@H](Cc2ccc(O)cc2)NC(=O)[C@@H](NC(=O)[C@@H](N)Cc2ccc(Cl)cc2)Cc2cn(nn2)C[C@@H](C(=O)N[C@H](Cc2ccc(O)cc2)C(N)=O)NC1=O [Compound 65] (H-[Phe(4-Cl)][Pra]Y[dPhe(4-CONH2)]KT[Dap(N3)][dY]-NH2; triazole 2-7)
5,> 1000,C[C@@H](O)[C@@H]1NC(=O)[C@H](CCCCN)NC(=O)[C@@H](Cc2ccc(C(N)=O)cc2)NC(=O)[C@H](Cc2ccc(O)cc2)NC(=O)[C@H](NC(=O)[C@@H](N)Cc2ccc(Cl)cc2)Cc2cn(nn2)C[C@@H](C(=O)N[C@H](Cc2ccc(O)cc2)C(N)=O)NC1=O [Compound 66] (H-[Phe(4-Cl)][dPra]Y[dPhe(4-CONH2)]KT[Dap(N3)][dY]-NH2; triazole 2-7)
6,> 1000,C[C@@H](O)[C@@H]1NC(=O)[C@H](CCCCN)NC(=O)[C@@H](Cc2ccc(C(N)=O)cc2)NC(=O)[C@H](Cc2ccc(O)cc2)NC(=O)[C@H](NC(=O)[C@@H](N)Cc2ccc(Cl)cc2)CC=CC[C@@H](C(=O)N[C@H](Cc2ccc(O)cc2)C(N)=O)NC1=O [Compound 67]

# — patent publication US12486302B2, “Somatostatin receptor antagonist compounds and methods of using the same” (CDRD VENTURES INC., priority 2016, dated 2025)
